Source: patent publication US20190382396A1, “SALTS OF BICYCLO[1.1.1]PENTANE INHIBITORS OF DUAL LEUCINE ZIPPER (DLK) KINASE FOR THE TREATMENT OF DISEASE” (Board of Regents, The University of Texas System, priority 2018, published 2019)
Where two headings read alike, the source gives them in different places.

Columns and labels:
[1] = Stability (50° C., 40° C./75% RH, light; 1 week); type: physicochemical; conditions: for XRPD change? / purity: bulk, 1 week
Method: The stability of the free base 1 and the selected salts 8, 9, 10, and 11 was evaluated. For each material, aliquots were set up at each of conditions (50° C., 40° C./75% RH, light) at given time points (initial and 1 week). PXRD diffractograms of the hydrogen fumarate salt 11 is shown in FIG. 17, with trace (a) showing the initial salt, trace (b) showing the salt after light treatment, trace (c) showing the salt after storage at 40° C. and 75% relative humidity for 1 week, and (d) showing the salt after storage at 50° C. for 1 week.

[2] = Solubility in physiologically relevant solutions (SGF, FaSSIF, FeSSIF); type: physicochemical; conditions: 25±0.5° C.; for solubility at 24 h: 25 °C, thermodynamic from solid
Method: Solubility of the free base 1 and the selected salts 8, 9, 10, and 11 in physiologically relevant solutions were examined. For each material, aliquots were added to 2 ml vials containing 500 uL of either SGF, FaSSIF, or FeSSIF, which were then sealed. The mixtures were kept shaking by thermomixer at 700 rpm, 25±0.5° C. for 24 h to facilitate the dissolution and then centrifuged by 96-well plates at 3000 rpm for 2 min. The filter liquors were diluted with diluents (ACN/water, 50/50) and analyzed by HPLC.

Question: With `CC(C)c1nc(-c2cnc(N)c(OC(F)(F)F)c2)cn1C12CC(N3CCOCC3)(C1)C2.O=C(O)/C=C/C(=O)O` [Example 11, 5-(2-isopropyl-1-(3-morpholinobicyclo[1.1.1]pentan-1-yl)-1H-imidazol-4-yl)-3-(trifluoromethoxy)pyridin-2-amine hydrogen fumarate] as the compound, how does the “XRPD change?” value ([1]; 40° C., 75% RH) read?
Answer: The value was “no”.

Question: And the purity ([1]; 40° C., 75% RH)?
Answer: Its purity is 99.88%.

Question: What about the “XRPD change?” value ([1]; 50° C.) of the same compound?
Answer: The value was “no”.

Question: And the purity ([1]; 50° C.)?
Answer: The purity was 99.89%.

Question: And the initial purity ([1]; initial (before storage))?
Answer: The initial purity was 99.85%.

Question: What about the “XRPD change?” value ([1]; light) of the same compound?
Answer: Its value is “no”.

Question: What about the purity ([1]; light) of the same compound?
Answer: Its purity is 99.89%.

Question: What about the solubility at 24 h ([2]; simulated gastric fluid, SGF, read-out: Solubility SGF Conc) of the same compound?
Answer: Its solubility at 24 h is 5810 µg/mL.

Question: And the solubility at 24 h ([2]; FaSSIF, read-out: Solubility FaSSIF Conc)?
Answer: The solubility at 24 h was 459 µg/mL.

Question: And the solubility at 24 h ([2]; FeSSIF, read-out: Solubility FeSSIF Conc)?
Answer: Its solubility at 24 h is 646 µg/mL.

Question: What about the “FaSSIF pH after 24 h” value ([2]; FaSSIF) of the same compound?
Answer: Its value is 4.85.

Question: And the “FeSSIF pH after 24 h” value ([2]; FeSSIF)?
Answer: Its value is 4.84.

Question: And the “SGF pH after 24 h” value ([2]; SGF)?
Answer: Its value is 3.01.
